Test [1] has as its system TLR2, TLR4 and TLR6 mRNAs in RAW264.7 cells. Kind of test: TLR mRNA levels, RT-PCR. Conditions: 0-1000 μg/m RR1, 24 hours. It is filed as cell-based, mouse. As for the experimental part:
The cells (1×10^6) were treated with RR1 (0, 10, 100, 500 and 1000 μg/ml) at 37° C. for 24 hours in a CO2 incubator and mRNA amplified with mouse TLR specific primers.
TLR mRNA and protein levels. TLR2, 4 and 6 mRNA levels were analyzed by RT-PCR using total RNAs extracted from RR1 treated cells. Total RNA was extracted from RR1-treated and untreated RAW 264.7 cells and 0.5 μg/ml RNA was reverse transcribed and amplified using mouse TLR2, 4 and 6 specific PCR primers (R&D SYSTEMS, Minneapolis, Minn.). Mouse GAPDH gene was also amplified as a control. The PCR products were separated on agarose gel.

Test [2] deals with HEK293 cells transfected with TLR6. In words: TLR signaling, IL-8 ELISA. It is filed as cell-based, human. To be noted: HEK/TLR6, RR1 0-100 μg/ml, 24 hours. As for the experimental part:
HEK293/TLR6 cells (1×10^6) were treated with RR1 (0, 10, 50, and 100 μg/ml) at 37° C. for 24 hours and secreted IL-8 in the medium was analyzed by ELISA protocol.
TLR signaling. To determine the involvement of TLR signaling, parental HEK293 as well as HEK293 cells transfected with human TLR2, TLR6, TLR2/6 or TLR4/CD14/MD2 genes (cloned into pDUO plasmid), were used. These cells (0.5×10^6/ml) were incubated with 0-100 μg/ml of RR1 for 24 hours. Since these cells produce very low level of TNF-α and detectable levels of IL-8 upon activation, IL-8 secreted into the medium was analyzed using ELISA procedure. Incidentally, the IL-8 synthesis is also under the control of the transcription factor NF-κB.
Background: In an ELISA, binding on a coated surface is turned into a signal by an enzyme label.

Test [3] deals with C3a des Arg (alternative pathway). In words: Complement activation pathway EIA in normal blood. Conditions: RR1 0-100 μg/ml, 24 hours. Also on record: species or system human. As for the experimental part: Normal blood samples from healthy volunteers were incubated with RR1 (0-100 μg) for 24 hours. Human complement C3a des Arg and C4a des Arg correlate EIA Kits (Assay Design Inc., Ann Arbor, Mich.) were used for quantification of classic and alternative pathway of complement activation using an ELISA procedure. ***p<0.001.
Complement activation pathway. Human complement C3a des Arg and C4a des Arg correlate-EIA Kits (ASSAY DESIGN Inc., Ann Arbor, Mich.) were used to measure the cleaved complement components (C3a des Arg and C4a des Arg) according to the manufacturer's protocols. In brief, 1 ml normal blood, drawn from healthy volunteer was incubated with 0-100 μg/ml of RR1 in a CO2 incubator at 37° C. for 24 hours. The treated blood samples were centrifuged at 2000×g at 4° C. and 225 μl of complement reagent ‘A’ was added to an equal volume of the sample supernatant and vortexed thoroughly. To this mixture, 50 μl of 10 N HCl was added, vortexed again and incubated at room temperature for 1 hour. […] The plate was incubated at 37° C. for 1 hour without shaking, added 50 μl of stop solution and absorbance was taken at 405 nm with a reference wavelength of 570 nm in a BIO-RAD Bench top plate reader.

Test [4] concerns monocytes isolated from peripheral blood mononuclear cells. In words: NO synthesis in monocytes. It is filed as cell-based. The text has this: NO levels are also reported to play an important role in the modulation of Th cell differentiation and polarization. Yamasaki et al. (Yamasaki, A. et al. Yonago Acta Medica, 1998, 44:7-15) and Taylor-Robinson et al. (Taylor-Robinson, A. W. et al. Eur. J. Immunol., 1994, 24:980-984) reported an inhibitory role of NO on Th1 cytokines while Bauer et al. (Bauer, H. et al., Immunol, 1997, 90:205-211) reported the same for Th1 as well as Th2 cytokines by NO from activated T cells. […] The enzyme iNOS produced a high output of NO from macrophages upon stimulation. […] The absence of iNOS induction by RR1 supports the conclusion that there is an insignificant increase in the production of NO. […] IFN-α, IFN-γ and TNF-α are known up-regulators of NO synthesis (Shin, J. Y. et al. Immunopharmcol. Immunotoxicol., 2002, 24:469-482; Hirazumi, A. and Furusawa, E. Phytother Res., 1999, 13:380-387).

Test [5] concerns RAW264.7 macrophages. Kind of test: Nonopsonized binding of FITC-zymosan A bioparticles. The class given is cell-based, mouse. Conditions: 1000 μg/ml RR1, 4° C. As for the experimental part: RR1 inhibits the binding and internalization of nonopsonic binding of zymosan A bioparticles in a dose-dependent manner. The cells were incubated with RR1 for 1 hour on ice (4° C.) in DMEM containing 0.5% FBS followed by zymosan A biparticles for 1 hour on ice. The cells were warmed for 7 minutes at 37° C. for internalization of zymosan A bioparticles and intracellular FITC fluorescence analyzed in a Coulter Elite flow cytometer.
Nonopsonized binding of RR1. To determine the inhibitory effect of RR1 on non-opsonized binding of zymosan A bioparticles, mouse monocyte/macrophage cells (0.5×10^6) were incubated with 0, 100, 500 and 1000 μg/ml of RR1 at 4° C. to prevent the local release of opsonins including complement (Ezekowitz, R. A. et al. J. Clin. Invest., 1985, 76:2368-2376; Brown, G. D. et al. J. Expt. Med., 2002, 196:407-412). After 1 hour incubation on ice, the cells were washed three times with pre-chilled culture medium, added FITC-conjugated zymosan A particles at a ratio of 25 particles/cell and kept on ice for another hour. The cells were washed with PBS twice and incubated in DMEM at 37° C. for 30 minutes in a CO2 incubator. The unbound zymosan particles were removed by extensive washing with medium and the intracellular fluorescence of the zymosan-FITC analyzed in a Coulter Elite flow cytometer.

These results are taken from US7425548B2, “Materials and methods for immune system stimulation” (Variety Chidren's Hospital, priority 2004, dated 2008).

As for (1,4)-α-D-glucan [RR1], the “mRNA levels of TLR2, 4 and 6” value in test [1] is “remained similar”. Besides, in test [2], the IL-8 production entry is reported as “copious induction of IL-8”. The “levels of C3a des Arg of the alternative pathway” value in test [3] is on record as “step-wise increase”. The “NO levels with RR1 treatment” value in test [4] is “did not induce any higher levels of NO”. Further, the “inhibition of nonopsonic binding of FITC-zymosan A bioparticles (fluorescence intensity)” value in test [5] is recorded as “about 65%”.
